Data on 1 compound can be found in patent publication US8153601B2, “Azithromycin-containing aqueous pharmaceutical composition and a method for the preparation of the same” (Wakamoto Pharmaceutical Co., Ltd., priority 2004, dated 2012).

A short description of this series: Stability of azithromycin during the preparation steps (survival rate of AZT after preparation, HPLC). Conditions: pH of the azithromycin-containing aqueous solution less than 4.0. It is filed as physicochemical. The procedure: Stability of the azithromycin-containing aqueous pharmaceutical compositions prepared in the above Examples and Comparative Examples were evaluated in terms of azithromycin concentration in the composition.
The compositions (Examples 1 to 8 and Comparative Examples 1 and 2) were packed in glass vial, sealed with a lid, and stored at 60° C. for one and two weeks. Then, azithromycin concentration in the composition just after packed in the glass vial and after the storage at 60° C. was determined by HPLC. Stability was evaluated as follows.
First, the azithromycin content added was compared with the azithromycin content in the composition just after packed in the glass vial to evaluate stability of azithromycin during the preparation steps. This is expressed by a survival rate of AZT after preparation wherein AZT means azithromycin.
The same procedures in Test Example 1 were repeated to evaluate stability of the compositions of Examples 9 to 12 and Comparative Example 3.
The similar procedures to Test Example 1 were repeated to evaluate stability of the compositions of Examples 18 to 20.

Structures are written as SMILES.

For the compound `CC[C@H]1OC(=O)[C@H](C)[C@@H](O[C@H]2C[C@@](C)(OC)[C@@H](O)[C@H](C)O2)[C@H](C)[C@@H](O[C@@H]2O[C@H](C)C[C@H](N(C)C)[C@H]2O)[C@](C)(O)C[C@@H](C)CN(C)[C@H](C)[C@@H](O)[C@]1(C)O` [azithromycin], the “decomposition of azithromycin in aqueous solution” value is given as “decomposed”.
